# Assays:
# [1] = test system: velvetleaf; assay: Test B pre/postemergence velvetleaf; assay type: in vivo, Abutilon theophrasti
# In short: (§1)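 Herbicidal effect was estimated by eye on a ten-point control scale after plants spent twelve to sixteen days in a greenhouse following soil or foliar treatment. Foliar sprays targeted plants at one to four leaves; all doses were formulated in a non-phytotoxic solvent with surfactant.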
# [2] = test system: smallflower flatsedge; assay: Test B flood test smallflower flatsedge; assay type: in vivo, Cyperus difformis
# In short: (§2)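 Read-out is a visual response score from 0 (no effect) to 10 (complete control), assigned by comparison with untreated controls. Treatment was applied at the 2-leaf stage, and plants stayed in the greenhouse for twelve to sixteen days before scoring.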
# [3] = test system: giant foxtail; assay: Test B pre/postemergence giant foxtail; assay type: in vivo, Setaria faberii
# In short: as §1
# [4] = test system: duck salad; assay: Test B flood test duck salad; assay type: in vivo, Heteranthera limosa
# In short: as §2
# [5] = test system: cocklebur; assay: Test B pre/postemergence cocklebur; assay type: in vivo, Xanthium strumarium
# In short: as §1
# [6] = test system: rice; assay: Test B flood test rice; assay type: in vivo, Oryza sativa
# In short: as §2
# [7] = test system: sugar beet; assay: Test B pre/postemergence sugar beet; assay type: in vivo, Beta vulgaris
# In short: as §1
# [8] = test system: soybean; assay: Test B pre/postemergence soybean; assay type: in vivo, Glycine max
# In short: as §1
# [9] = test system: rape; assay: Test B pre/postemergence rape; assay type: in vivo, Brassica napus
# In short: as §1
# [10] = test system: pigweed; assay: Test B pre/postemergence pigweed; assay type: in vivo, Amaranthus retroflexus
# In short: as §1
# [11] = test system: wheat; assay: Test B pre/postemergence wheat; assay type: in vivo, Triticum aestivum
# In short: as §1
# [12] = test system: purple nutsedge; assay: Test B pre/postemergence purple nutsedge; assay type: in vivo, Cyperus rotundus
# In short: as §1
# [13] = test system: surinam grass; assay: Test B pre/postemergence surinam grass; assay type: in vivo, Brachiaria decumbens
# In short: as §1
# [14] = test system: bedstraw; assay: Test B pre/postemergence bedstraw; assay type: in vivo, Galium aparine
# In short: as §1
# [15] = test system: corn; assay: Test B pre/postemergence corn; assay type: in vivo, Zea mays
# In short: as §1
# [16] = test system: wild oat; assay: Test B pre/postemergence wild oat; assay type: in vivo, Avena fatua
# In short: as §1
# [17] = Postemergence, Rate 62 g/ha, scale 0 to 10, 0 is no effect, 10 is complete control
# [18] = Postemergence, Rate 250 g/ha, scale 0 to 10, 0 no effect, 10 complete control
# [19] = Postemergence, Rate 1000 g/ha, scale 0 to 10 (0 no effect, 10 complete control)
# [20] = Preemergence, Rate 31 g/ha, visual rating, scale 0 to 10 (0 no effect, 10 complete control)
# [21] = Preemergence, Rate 62 g/ha, scale 0 to 10, 0 is no effect, 10 is complete control
# [22] = Preemergence, Rate 125 g/ha, scale 0 to 10 (0 no effect, 10 complete control)
# [23] = Preemergence, Rate 250 g/ha, scale of 0 to 10 where 0 is no effect and 10 is complete control
# [24] = Preemergence, Rate 500 g/ha, scale 0 (no effect) to 10 (complete control)
# [25] = Rate 125 g/ha, Postemergence, scale 0 to 10, 0 no effect, 10 complete control
# [26] = Rate 1000 g/ha, Preemergence, scale 0 to 10 (0 no effect, 10 complete control)
# [27] = Rate 125 g/ha, Postemergence section (flood test species), scale 0 to 10, 0 no effect, 10 complete control
# [28] = flood test, listed under Postemergence, Rate 250 g/ha, scale 0 to 10, 0 no effect, 10 complete control
# [29] = Rate 31 g/ha, Postemergence, scale 0 to 10
# [30] = Rate 500 g/ha, Postemergence, 0 to 10 scale (0 no effect, 10 complete control)
# [31] = Rate 31 g/ha, Postemergence section (flood test species), scale 0 to 10
# [32] = Rate 500 g/ha, Postemergence section of Table B, 0 to 10 scale (0 no effect, 10 complete control)
structure (smiles),measurement,setting,value
Cc1ccccc1-n1c(=O)on(C(=O)N(c2ccc(F)cc2)C(C)C)c1=O [Compound 4],Velvetleaf plant response rating,[1]; [17],0
same,Velvetleaf plant response rating,[1]; [18],3
same,Velvetleaf plant response rating,[1]; [19],7
same,Velvetleaf plant response rating,[1]; [20],0
same,"Plant response rating, Velvetleaf",[1]; [21],0
same,"Plant response rating, Velvetleaf",[1]; [22],0
same,"Plant response rating, Velvetleaf",[1]; [23],0
same,Velvetleaf plant response rating,[1]; [24],0
same,Velvetleaf plant response rating,[1]; [25],3
same,"Plant response rating, Velvetleaf",[1]; [26],0
same,S. Flatsedge plant response rating,[2]; [17],0
same,S. Flatsedge plant response rating,[2]; [19],4
same,S. Flatsedge plant response rating,[2]; [27],0
same,S. Flatsedge plant response rating,[2]; [28],2
same,Giant foxtail plant response rating,[3]; [17],0
same,Giant foxtail plant response rating,[3]; [18],3
same,Giant foxtail plant response rating,[3]; [19],6
same,Giant foxtail plant response rating,[3]; [20],8
same,"Plant response rating, Giant foxtail",[3]; [21],9
same,"Plant response rating, Giant foxtail",[3]; [22],9
same,"Plant response rating, Giant foxtail",[3]; [23],10
same,Giant foxtail plant response rating,[3]; [24],10
same,Giant foxtail plant response rating,[3]; [29],0
same,Giant foxtail plant response rating,[3]; [25],5
same,Giant foxtail plant response rating,[3]; [30],4
same,"Plant response rating, Giant foxtail",[3]; [26],10
same,Ducksalad plant response rating,[4]; [17],0
same,Ducksalad plant response rating,[4]; [19],3
same,Ducksalad plant response rating,[4]; [31],0
same,Ducksalad plant response rating,[4]; [27],0
same,Ducksalad plant response rating,[4]; [32],2
same,Ducksalad plant response rating,[4]; [28],2
same,Cocklebur plant response rating,[5]; [17],0
same,Cocklebur plant response rating,[5]; [18],6
same,Cocklebur plant response rating,[5]; [19],8
same,Cocklebur plant response rating,[5]; [20],0
same,"Plant response rating, Cocklebur",[5]; [21],0
same,"Plant response rating, Cocklebur",[5]; [22],0
same,"Plant response rating, Cocklebur",[5]; [23],0
same,Cocklebur plant response rating,[5]; [24],0
same,Cocklebur plant response rating,[5]; [29],0
same,Cocklebur plant response rating,[5]; [25],2
same,Cocklebur plant response rating,[5]; [30],6
same,"Plant response rating, Cocklebur",[5]; [26],0
same,Rice plant response rating,[6]; [17],0
same,Rice plant response rating,[6]; [19],0
same,Rice plant response rating,[6]; [31],0
same,Rice plant response rating,[6]; [27],0
same,Rice plant response rating,[6]; [32],0
same,Rice plant response rating,[6]; [28],0
same,Sugarbeets plant response rating,[7]; [17],0
same,Sugarbeets plant response rating,[7]; [18],3
same,Sugarbeets plant response rating,[7]; [19],4
same,Sugarbeets plant response rating,[7]; [20],0
same,"Plant response rating, Sugarbeets",[7]; [21],0
same,"Plant response rating, Sugarbeets",[7]; [22],7
same,"Plant response rating, Sugarbeets",[7]; [23],8
same,Sugarbeets plant response rating,[7]; [24],3
same,Sugarbeets plant response rating,[7]; [25],2
same,"Plant response rating, Sugarbeets",[7]; [26],4
same,Soybean plant response rating,[8]; [17],2
same,Soybean plant response rating,[8]; [18],4
same,Soybean plant response rating,[8]; [19],5
same,Soybean plant response rating,[8]; [20],0
same,"Plant response rating, Soybean",[8]; [21],0
same,"Plant response rating, Soybean",[8]; [22],0
same,"Plant response rating, Soybean",[8]; [23],0
same,Soybean plant response rating,[8]; [24],0
same,Soybean plant response rating,[8]; [25],4
same,"Plant response rating, Soybean",[8]; [26],1
same,Rape plant response rating,[9]; [17],0
same,Rape plant response rating,[9]; [18],0
same,Rape plant response rating,[9]; [19],3
same,Rape plant response rating,[9]; [20],0
same,"Plant response rating, Rape",[9]; [21],0
same,"Plant response rating, Rape",[9]; [22],0
same,"Plant response rating, Rape",[9]; [23],6
same,Rape plant response rating,[9]; [24],0
same,Rape plant response rating,[9]; [29],0
same,Rape plant response rating,[9]; [25],0
same,Rape plant response rating,[9]; [30],2
same,"Plant response rating, Rape",[9]; [26],3
same,Redroot pigweed plant response rating,[10]; [17],0
same,Redroot pigweed plant response rating,[10]; [18],5
same,Redroot pigweed plant response rating,[10]; [19],8
same,Redroot pigweed plant response rating,[10]; [20],0
same,"Plant response rating, Redroot pigweed",[10]; [21],2
same,"Plant response rating, Redroot pigweed",[10]; [22],5
same,"Plant response rating, Redroot pigweed",[10]; [23],8
same,Redroot pigweed plant response rating,[10]; [29],0
same,Redroot pigweed plant response rating,[10]; [25],4
same,Redroot pigweed plant response rating,[10]; [30],7
same,"Plant response rating, Redroot pigweed",[10]; [26],8
same,Wheat plant response rating,[11]; [17],0
same,Wheat plant response rating,[11]; [18],0
same,Wheat plant response rating,[11]; [19],0
same,Wheat plant response rating,[11]; [20],0
same,"Plant response rating, Wheat",[11]; [21],0
same,"Plant response rating, Wheat",[11]; [22],0
same,"Plant response rating, Wheat",[11]; [23],0
same,Wheat plant response rating,[11]; [24],0
same,Wheat plant response rating,[11]; [25],0
same,"Plant response rating, Wheat",[11]; [26],0
same,Nutsedge plant response rating,[12]; [17],0
same,Nutsedge plant response rating,[12]; [18],0
same,Nutsedge plant response rating,[12]; [19],0
same,Nutsedge plant response rating,[12]; [20],0
same,"Plant response rating, Nutsedge",[12]; [21],0
same,"Plant response rating, Nutsedge",[12]; [22],0
same,"Plant response rating, Nutsedge",[12]; [23],0
same,Nutsedge plant response rating,[12]; [24],0
same,Nutsedge plant response rating,[12]; [29],0
same,Nutsedge plant response rating,[12]; [25],0
same,Nutsedge plant response rating,[12]; [30],0
same,"Plant response rating, Nutsedge",[12]; [26],0
same,B. signalgrass plant response rating,[13]; [17],0
same,B. signalgrass plant response rating,[13]; [18],0
same,B. signalgrass plant response rating,[13]; [19],4
same,B. signalgrass plant response rating,[13]; [20],0
same,"Plant response rating, B. signalgrass",[13]; [21],0
same,"Plant response rating, B. signalgrass",[13]; [22],7
same,"Plant response rating, B. signalgrass",[13]; [23],8
same,B. signalgrass plant response rating,[13]; [24],9
same,B. signalgrass plant response rating,[13]; [29],0
same,B. signalgrass plant response rating,[13]; [25],0
same,B. signalgrass plant response rating,[13]; [30],2
same,"Plant response rating, B. signalgrass",[13]; [26],10
same,Bedstraw plant response rating,[14]; [17],0
same,Bedstraw plant response rating,[14]; [18],7
same,Bedstraw plant response rating,[14]; [19],8
same,Bedstraw plant response rating,[14]; [20],0
same,"Plant response rating, Bedstraw",[14]; [21],0
same,"Plant response rating, Bedstraw",[14]; [22],1
same,"Plant response rating, Bedstraw",[14]; [23],4
same,Bedstraw plant response rating,[14]; [24],4
same,Bedstraw plant response rating,[14]; [29],0
same,Bedstraw plant response rating,[14]; [25],5
same,Bedstraw plant response rating,[14]; [30],7
same,"Plant response rating, Bedstraw",[14]; [26],6
same,Corn plant response rating,[15]; [17],0
same,Corn plant response rating,[15]; [18],0
same,Corn plant response rating,[15]; [19],0
same,Corn plant response rating,[15]; [20],0
same,"Plant response rating, Corn",[15]; [21],0
same,"Plant response rating, Corn",[15]; [22],0
same,"Plant response rating, Corn",[15]; [23],0
same,Corn plant response rating,[15]; [24],0
same,Corn plant response rating,[15]; [29],0
same,Corn plant response rating,[15]; [25],0
same,Corn plant response rating,[15]; [30],0
same,"Plant response rating, Corn",[15]; [26],0
same,Wild oats plant response rating,[16]; [17],0
same,Wild oats plant response rating,[16]; [18],0
same,Wild oats plant response rating,[16]; [19],0
same,Wild oats plant response rating,[16]; [20],0
same,"Plant response rating, Wild oats",[16]; [22],0
same,"Plant response rating, Wild oats",[16]; [23],4
same,Wild oats plant response rating,[16]; [24],7
same,Wild oats plant response rating,[16]; [25],0
same,"Plant response rating, Wild oats",[16]; [26],8
